# Test results from US12274740B2, “Microbiome protection from oral antibiotics” (Theriva Biologics, Inc., priority 2016, dated 2025).
# Several values for one entry are separate records, joined by “and”; a condition that tells them apart may be missing. Equal entries are not always repeated.
# Legend:
# [1] = Two arm PK study in dogs: amoxicillin levels in dog serum with or without Formulation 2 (TABLE 17); format: in vivo, beagle dogs; conditions: for Amoxicillin levels in dog serum, 0.00 hr: pre-dose
# Method: Formulation 2 (TABLE 17) was chosen for evaluation in dogs. A two arm pharmacokinetics (PK) study was performed in three non-naïve male beagle dogs (age 2 years, approximately 12 kg). Animals were fasted overnight prior to the day of dosing in each arm. In Arm 1, the dogs were administered one dose of an amoxicillin suspension (amoxicillin powder, Sandoz, Lot FW1707, reconstituted in apple juice to 400 mg/5 ml) via oral gavage at 80 mg/kg. Animals were returned to their cages post-dose and fed 1.5 hrs after amoxicillin dosing. In Arm 2, dogs were administered an amoxicillin suspension (80 mg/kg, prepared as in Arm 1) via oral gavage. Immediately after the oral amoxicillin was dosed, the animals received one size 4 capsule of Formulation 2 (TABLE 17) containing 10 mg of SYN-004. The capsules were not chewed and were swallowed whole. Capsules were dosed by hand by placing the capsule in the back of the dog's mouth and followed by 6 mL of Mott's 100% apple juice in a syringe. Animals were returned to their cages post-dose and fed 1.5 hrs after amoxicillin dosing. There was a seven day washout period between the two arms. In both arms of the study, blood (approximately 2 mL) was collected for serum PK analysis at pre-dose, and 30 minutes, 1, 2, 3, 4, 6, 8, and 10 hrs post-dose. Serum was collected and immediately frozen at −80° C. Feed was ad-libitum throughout both arms, except during dosing, which was done fasted as described. […] Animals were returned to the colony following the last blood collection.
# Serum was analyzed for amoxicillin levels using a validated liquid chromatography (LC) method with tandem mass spectrometry detection (LC/MS/MS). Briefly, the serum samples were extracted using the protein precipitation extraction method and analyzed using reverse phase LC. Amoxicillin and amoxicillin-d4 (internal standard) were detected using tandem MS. The study was performed using Applied Biosystems Triple Quad API 500 LC/MS/MS system with Turbo ion spray interfaces. The data were acquired and analyzed by Applied Biosystems “Analyst” software, version 1.5. The lower limit of quantitation (LLOQ) for amoxicillin was 101.723 ng/ml. The upper limit of quantitation (ULOQ) for amoxicillin was 20344.678 ng/ml. A calibration curve consisting of two control blanks, two zero standards and ten non-zero standards, prepared in naïve dog serum, covering a range of 101.723 to 20344.678 ng/ml, were run with each sample batch. Amoxicillin levels were similar for each animal in Arm 1 and Arm 2 of the study (TABLE 19). The amoxicillin serum levels in Arm 1 and Arm 2 for each dog were plotted separately and the area under the curves was calculated (FIG. 25). The area under the curve for each animal was similar in Arm 1 and Arm 2 of the study. […] Therefore, the strategy to reduce the potential for premature release, release in the small intestine prior to absorption of orally-delivered amoxicillin, by using FS 30 D-coated SYN-004 layered sucrose pellets incorporated inside FS 30 D-coated capsule, or the “nested” strategy, was successful as indicated by the similar amoxicillin blood levels in each dog with and without SYN-004.
# [2] = Piglet study of modified nested SYN-004 formulation with oral amoxicillin; format: in vivo, Yorkshire piglets; conditions: pig serum three hours after oral amoxicillin 40 mg/kg
# Method: Formulation 2 (TABLE 17) capsules consisting of FS 30 D-coated SYN-004 pellets within FS 30 D-coated capsules were prepared for testing in normal piglets. For this formulation, size 9H gelatin capsules (small capsules, 2.7 mm diameter, 5 mm length) were filled with 3 pellets of FS 30 D-coated SYN-004 sucrose cores, then coated with FS 30 D. The coated 9H capsule containing the SYN-004 pellets was then inserted into a size 5 gelatin capsule for ease of delivery to the pigs (FIG. 26). Each FS 30 D-coated pellet of SYN-004 contained […] of SYN-004. Therefore, the total SYN-004 dose was 0.5 mg/size 5 gelatin capsule. The anticipated advantage of this nested strategy using the small 9H capsules is that the gelatin capsule will dissolve in the stomach, releasing the small FS 30 D-coated 9H capsule that is protected from stomach acid and is small enough to pass through the gastric pylorus without the need for stomach emptying. […] Amoxicillin levels were similar in animals treated with amoxicillin alone and with amoxicillin plus the SYN-004 (FIG. 27; TABLE 20).
# in vivo = conditions: Yorkshire, pig
# Method: A study was performed using normal piglets to compare the three, modified-release formulations of SYN-004 as described in Example 2, and the original SYN-004 formulation (Enteric pH 5.5) as described in Example 1, delivered orally with oral amoxicillin, to evaluate the effect on amoxicillin serum levels and protection of the microbiome from amoxicillin-induced dysbiosis (FIG. 20).
# A total of 25, two month old Yorkshire piglets, approximately 20 kg each, were used for this study. All 25 animals were treated with oral amoxicillin twice a day for a total of 7 days, in addition, Groups 2-5 received SYN-004 four times a data starting the day before amoxicillin treatment for a total of 9 days (TABLE 7).
# On Study Day 0, Groups 2-5 (Pigs 6-25) received one size 0 capsule of one of each of the four SYN-004 formulations, containing 50 mg of SYN-004, orally, four times a day at 7 am, 12 pm, 5 pm, and 10 pm for a total of 9 days. Pigs were fed 3 times a day, after SYN-004 dosing at 7 am, after SYN-004 dosing at 12 pm, and after SYN-004 dosing at 5 pm. Beginning on Study Day 1, all groups, 1-5 (Pigs 1-25), received oral amoxicillin (fruit flavored oral suspension, Sandoz, NDC: 0781-6157-46, Lot #FB0703; 20 mg/kg) twice a day at 7 am and at 5 pm, for a total of 7 days. […]
# Amoxicillin levels in the pig serum were quantified using a validated liquid chromatography method with MS/MS detection.
# [3] = Arm 1: amoxicillin 80 mg/kg oral gavage alone
# [4] = Arm 2: amoxicillin 80 mg/kg + one capsule Formulation 2 (TABLE 17), 10 mg SYN-004
smiles,measurement,setting,value
CC1(C)S[C@@H]2[C@H](NC(=O)[C@H](N)c3ccc(O)cc3)C(=O)N2[C@H]1C(=O)O [Amoxicillin],"Amoxicillin levels in dog serum, 0.50 hr",[1]; [3],17908.396 ng/mL and 16720.439 ng/mL
same,"Amoxicillin levels in dog serum, 0.00 hr",[1]; [3],BLQ (BLQ: Below lower limit of quantitation)
same,"Amoxicillin levels in dog serum, 2.00 hr",[1]; [4],30317.167 ng/mL and 35935.251 ng/mL
same,"Amoxicillin levels in dog serum, 0.00 hr",[1]; [4],BLQ (BLQ: Below lower limit of quantitation)
same,concentration at 10 h,"[1]; male, beagle, dog, serum, oral, 80 mg/kg, Arm 1: amoxicillin 80 mg/kg oral gavage alone",183 ng/mL
same,concentration at 0.5 h,"[1]; male, beagle, dog, serum, oral, 80 mg/kg, Arm 1: amoxicillin 80 mg/kg oral gavage alone, read-out: Amoxicillin levels in dog serum, 0.50 hr",12600 ng/mL
same,concentration at 2 h,"[1]; male, beagle, dog, serum, oral, Arm 2: amoxicillin 80 mg/kg + one capsule Formulation 2 (TABLE 17), 10 mg SYN-004",18700 ng/mL
same,"area under the curve, Arm 1 versus Arm 2","[1]; serum amoxicillin, each animal",similar
same,concentration at 3 h,"[2]; Yorkshire, pig, serum, oral, 40 mg/kg, Amoxicillin Serum Levels (ng/ml) Mean, alone or with SYN-004 0.5 mg, 5 pigs, heading: Amoxicillin Serum Levels Mean",182 ng/mL
same,"Amoxicillin Serum Levels (ng/ml), individual animal",[2]; alone or with one capsule SYN-004 modified nested formulation (0.5 mg),29647 ng/mL and 6498 ng/mL and 25130 ng/mL and 14936 ng/mL and 14757 ng/mL
same,concentration at 3 h,in vivo; Amoxicillin (ng/ml) 3 hours,1160 to 2320 ng/mL
same,concentration at 6 h,in vivo; Amoxicillin (ng/ml) 6 hours,667 to 1160 ng/mL
